Assay results as given in PubChem BioAssay (NCI).
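Each compound was tested at five concentrations against cells in 96-well plates for 48 hours. Abbreviation: GI50, concentration required for 50% inhibition of growth. TGI: total growth inhibition.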

Tests used:
Experiment in all cases: inhibition of tumour cell growth, NCI panel, 48 h
786-0 renal = test system: 786-0 renal
A498 renal = test system: A498 renal
A549 NSCLC = test system: A549 NSCLC
ACHN renal = test system: ACHN renal
BT-549 breast = test system: BT-549 breast
CAKI-1 renal = test system: CAKI-1 renal
CCRF-CEM leukemia = test system: CCRF-CEM leukemia
COLO 205 colon = test system: COLO 205 colon
DU-145 prostate = test system: DU-145 prostate
EKVX NSCLC = test system: EKVX NSCLC
HCC-2998 colon = test system: HCC-2998 colon
HCT-116 colon = test system: HCT-116 colon
HCT-15 colon = test system: HCT-15 colon
HL-60(TB) leukemia = test system: HL-60(TB) leukemia
HOP-62 NSCLC = test system: HOP-62 NSCLC
HOP-92 NSCLC = test system: HOP-92 NSCLC
HS 578T breast = test system: HS 578T breast
HT29 colon = test system: HT29 colon
IGROV1 ovarian = test system: IGROV1 ovarian
K-562 leukemia = test system: K-562 leukemia
KM12 colon = test system: KM12 colon
LOX IMVI melanoma = test system: LOX IMVI melanoma
M14 melanoma = test system: M14 melanoma
MALME-3M melanoma = test system: MALME-3M melanoma
MCF7 breast = test system: MCF7 breast
MDA-MB-231 breast = test system: MDA-MB-231 breast
MDA-MB-435 = test system: MDA-MB-435
MDA-MB-468 breast = test system: MDA-MB-468 breast
MOLT-4 leukemia = test system: MOLT-4 leukemia
NCI-H226 lung = test system: NCI-H226 lung
NCI-H23 lung = test system: NCI-H23 lung
NCI-H460 lung = test system: NCI-H460 lung
NCI-H522 lung = test system: NCI-H522 lung
OVCAR-3 ovarian = test system: OVCAR-3 ovarian
OVCAR-4 ovarian = test system: OVCAR-4 ovarian
OVCAR-5 ovarian = test system: OVCAR-5 ovarian
OVCAR-8 ovarian = test system: OVCAR-8 ovarian
PC-3 prostate = test system: PC-3 prostate
RPMI-8226 leukemia = test system: RPMI-8226 leukemia
RXF 393 renal = test system: RXF 393 renal
SF-268 CNS = test system: SF-268 CNS
SF-295 CNS = test system: SF-295 CNS
SF-539 CNS = test system: SF-539 CNS
SK-MEL-2 melanoma = test system: SK-MEL-2 melanoma
SK-MEL-28 melanoma = test system: SK-MEL-28 melanoma
SK-MEL-5 melanoma = test system: SK-MEL-5 melanoma
SK-OV-3 ovarian = test system: SK-OV-3 ovarian
SN12C renal = test system: SN12C renal
SNB-19 CNS = test system: SNB-19 CNS
SNB-75 CNS = test system: SNB-75 CNS
SR leukemia = test system: SR leukemia
SW-620 colon = test system: SW-620 colon
T-47D breast = test system: T-47D breast
TK-10 renal = test system: TK-10 renal
U251 CNS = test system: U251 CNS
UACC-257 melanoma = test system: UACC-257 melanoma
UACC-62 melanoma = test system: UACC-62 melanoma
UO-31 renal = test system: UO-31 renal

## CC1=C(C(=O)Nc2ccccc2)C(c2cccc3ccccc23)n2c(nc3ccccc32)N1 (configuration not stated)
786-0 renal
  GI50: 25.1 µM
  TGI: > 100 µM
A498 renal
  GI50: > 100 µM
  TGI: > 100 µM
A549 NSCLC
  GI50: 4.44 µM
  TGI: > 100 µM
ACHN renal
  GI50: 19.3 µM
  TGI: > 100 µM
BT-549 breast
  GI50: 13.1 µM
  TGI: > 100 µM
CAKI-1 renal
  GI50: > 100 µM
  TGI: > 100 µM
CCRF-CEM leukemia
  GI50: > 100 µM
  TGI: > 100 µM
COLO 205 colon
  GI50: > 100 µM
  TGI: > 100 µM
DU-145 prostate
  GI50: 47.3 µM
  TGI: > 100 µM
EKVX NSCLC
  GI50: 73.7 µM
  TGI: > 100 µM
HCC-2998 colon
  GI50: > 100 µM
  TGI: > 100 µM
HCT-116 colon
  GI50: 6.62 µM
  TGI: > 100 µM
HCT-15 colon
  GI50: > 100 µM
  TGI: > 100 µM
HL-60(TB) leukemia
  GI50: > 100 µM
  TGI: > 100 µM
HOP-62 NSCLC
  GI50: 20.2 µM
  TGI: 56.9 µM
HOP-92 NSCLC
  GI50: 16.7 µM
  TGI: > 100 µM
HS 578T breast
  GI50: 2.9 µM
  TGI: 20.1 µM
HT29 colon
  GI50: > 100 µM
  TGI: > 100 µM
IGROV1 ovarian
  GI50: 89.2 µM
  TGI: > 100 µM
K-562 leukemia
  GI50: > 100 µM
  TGI: > 100 µM
KM12 colon
  GI50: > 100 µM
  TGI: > 100 µM
LOX IMVI melanoma
  GI50: 11 µM
  TGI: > 100 µM
M14 melanoma
  GI50: > 100 µM
  TGI: > 100 µM
MALME-3M melanoma
  GI50: 16.5 µM
  TGI: 82 µM
MCF7 breast
  GI50: > 100 µM
  TGI: > 100 µM
MDA-MB-231 breast
  GI50: 10.1 µM
  TGI: 93.1 µM
MDA-MB-435
  GI50: > 100 µM
  TGI: > 100 µM
MDA-MB-468 breast
  GI50: 26.6 µM
  TGI: > 100 µM
MOLT-4 leukemia
  GI50: > 100 µM
  TGI: > 100 µM
NCI-H226 lung
  GI50: 16.4 µM
  TGI: 96.1 µM
NCI-H23 lung
  GI50: > 100 µM
  TGI: > 100 µM
NCI-H460 lung
  GI50: > 100 µM
  TGI: > 100 µM
NCI-H522 lung
  GI50: > 100 µM
  TGI: > 100 µM
OVCAR-3 ovarian
  GI50: > 100 µM
  TGI: > 100 µM
OVCAR-4 ovarian
  GI50: 5.93 µM
  TGI: > 100 µM
OVCAR-5 ovarian
  GI50: > 100 µM
  TGI: > 100 µM
OVCAR-8 ovarian
  GI50: 14.5 µM
  TGI: > 100 µM
PC-3 prostate
  GI50: 23.1 µM
  TGI: > 100 µM
RPMI-8226 leukemia
  GI50: > 100 µM
  TGI: > 100 µM
RXF 393 renal
  GI50: 15.4 µM
  TGI: 95.1 µM
SF-268 CNS
  GI50: 30.4 µM
  TGI: > 100 µM
SF-295 CNS
  GI50: 60.4 µM
  TGI: > 100 µM
SF-539 CNS
  GI50: 15.2 µM
  TGI: > 100 µM
SK-MEL-2 melanoma
  GI50: 83.3 µM
  TGI: > 100 µM
SK-MEL-28 melanoma
  GI50: > 100 µM
  TGI: > 100 µM
SK-MEL-5 melanoma
  GI50: > 100 µM
  TGI: > 100 µM
SK-OV-3 ovarian
  GI50: > 100 µM
  TGI: > 100 µM
SN12C renal
  GI50: 9.91 µM
  TGI: > 100 µM
SNB-19 CNS
  GI50: 9.08 µM
  TGI: 76.9 µM
SNB-75 CNS
  GI50: 1.76 µM
  TGI: 5.95 µM
SR leukemia
  GI50: > 100 µM
  TGI: > 100 µM
SW-620 colon
  GI50: > 100 µM
  TGI: > 100 µM
T-47D breast
  GI50: > 100 µM
  TGI: > 100 µM
TK-10 renal
  GI50: > 100 µM
  TGI: > 100 µM
U251 CNS
  GI50: 11.1 µM
  TGI: > 100 µM
UACC-257 melanoma
  GI50: > 100 µM
  TGI: > 100 µM
UACC-62 melanoma
  GI50: > 100 µM
  TGI: > 100 µM
UO-31 renal
  GI50: > 100 µM
  TGI: > 100 µM

## O=C(O)c1ccc(-c2ccc(/C=N/NC(=O)c3[nH]c4ccc(Br)cc4c3-c3ccccc3)s2)cc1
786-0 renal
  GI50: 3.13 µM
  TGI: 11 µM
A498 renal
  GI50: 20.7 µM
  TGI: 52 µM
A549 NSCLC
  GI50: 13.5 µM
  TGI: 44.6 µM
ACHN renal
  GI50: 11.4 µM
  TGI: 55.7 µM
BT-549 breast
  GI50: 1.95 µM
  TGI: 5.83 µM
CAKI-1 renal
  GI50: 21.1 µM
  TGI: 64.1 µM
CCRF-CEM leukemia
  GI50: 4.44 µM
  TGI: 26.9 µM
COLO 205 colon
  GI50: 16.1 µM
  TGI: 33.9 µM
DU-145 prostate
  GI50: 24.9 µM
  TGI: > 100 µM
EKVX NSCLC
  GI50: 14.4 µM
  TGI: 39.1 µM
HCC-2998 colon
  GI50: 11.8 µM
  TGI: 27.3 µM
HCT-116 colon
  GI50: 3.7 µM
  TGI: 12.6 µM
HCT-15 colon
  GI50: 5.27 µM
  TGI: 20 µM
HL-60(TB) leukemia
  GI50: 4.31 µM
  TGI: 25 µM
HOP-62 NSCLC
  GI50: 12.3 µM
  TGI: 30.4 µM
HOP-92 NSCLC
  GI50: 4.41 µM
  TGI: 22 µM
HS 578T breast
  GI50: 6.67 µM
  TGI: 38.9 µM
HT29 colon
  GI50: 12.7 µM
  TGI: 30.4 µM
IGROV1 ovarian
  GI50: 7.85 µM
  TGI: 23.1 µM
K-562 leukemia
  GI50: 6.15 µM
  TGI: 37.1 µM
KM12 colon
  GI50: 15.3 µM
  TGI: 39.7 µM
LOX IMVI melanoma
  GI50: 25.7 µM
  TGI: > 100 µM
M14 melanoma
  GI50: 6.32 µM
  TGI: 30.3 µM
MALME-3M melanoma
  GI50: 16.3 µM
  TGI: 38.2 µM
MCF7 breast
  GI50: 18.1 µM
  TGI: 65.1 µM
MDA-MB-231 breast
  GI50: 20.6 µM
  TGI: 47.2 µM
MDA-MB-435
  GI50: 6.81 µM
  TGI: 28.2 µM
MDA-MB-468 breast
  GI50: 19.1 µM
  TGI: 59.7 µM
MOLT-4 leukemia
  GI50: 6.42 µM
  TGI: 34.2 µM
NCI-H226 lung
  GI50: 21 µM
  TGI: 75.5 µM
NCI-H23 lung
  GI50: 21.7 µM
  TGI: 54.5 µM
NCI-H460 lung
  GI50: 12.3 µM
  TGI: 31.5 µM
NCI-H522 lung
  GI50: 15.9 µM
  TGI: 33.4 µM
OVCAR-3 ovarian
  GI50: 13.7 µM
  TGI: 35.8 µM
OVCAR-4 ovarian
  GI50: 7.68 µM
  TGI: 44.9 µM
OVCAR-5 ovarian
  GI50: 17.1 µM
  TGI: 31.5 µM
OVCAR-8 ovarian
  GI50: 15.9 µM
  TGI: 66.9 µM
PC-3 prostate
  GI50: 4.79 µM
  TGI: 37 µM
RPMI-8226 leukemia
  GI50: 6.05 µM
  TGI: 51.3 µM
RXF 393 renal
  GI50: 13.9 µM
  TGI: 57.7 µM
SF-268 CNS
  GI50: 13.5 µM
  TGI: 46 µM
SF-295 CNS
  GI50: 7.34 µM
  TGI: 26.2 µM
SF-539 CNS
  GI50: 6.79 µM
  TGI: 22.2 µM
SK-MEL-2 melanoma
  GI50: 15.6 µM
  TGI: 35.7 µM
SK-MEL-28 melanoma
  GI50: 7.17 µM
  TGI: 21.6 µM
SK-MEL-5 melanoma
  GI50: 12 µM
  TGI: 27 µM
SK-OV-3 ovarian
  GI50: 20 µM
  TGI: 41.2 µM
SN12C renal
  GI50: 9.73 µM
  TGI: 29.7 µM
SNB-19 CNS
  GI50: 6.76 µM
  TGI: 20.5 µM
SNB-75 CNS
  GI50: 11.2 µM
  TGI: 44.8 µM
SR leukemia
  GI50: 13.7 µM
  TGI: 58 µM
SW-620 colon
  GI50: 13.8 µM
  TGI: 34.1 µM
T-47D breast
  GI50: 13.9 µM
  TGI: 59.5 µM
TK-10 renal
  GI50: 26.8 µM
  TGI: > 100 µM
U251 CNS
  GI50: 5.98 µM
  TGI: 22 µM
UACC-257 melanoma
  GI50: 18.7 µM
  TGI: 50.2 µM
UACC-62 melanoma
  GI50: 11.7 µM
  TGI: 24.6 µM
UO-31 renal
  GI50: 10.4 µM
  TGI: 33.9 µM
